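In this assay, cells in 96-well plates receive the compound at five concentrations for 48 hours. Endpoints are linearly interpolated between the surrounding concentrations. TGI: concentration producing complete growth inhibition.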
Key:
Assay in all cases: NCI tumour cell line growth inhibition, 48 h
XF 498 CNS = system: XF 498 CNS
M19-MEL melanoma = system: M19-MEL melanoma
SNB-78 CNS = system: SNB-78 CNS
KM20L2 colon = system: KM20L2 colon
RXF-631 renal = system: RXF-631 renal
786-0 renal = system: 786-0 renal
SN12K1 renal = system: SN12K1 renal
P388/ADR leukemia = system: P388/ADR leukemia
MDA-N = system: MDA-N
P388 leukemia = system: P388 leukemia

| Compound | TGI (XF 498 CNS) [µM] | TGI (M19-MEL melanoma) [µM] | TGI (SNB-78 CNS) [µM] | TGI (KM20L2 colon) [µM] | TGI (RXF-631 renal) [µM] | TGI (786-0 renal) [µM] | TGI (SN12K1 renal) [µM] | TGI (P388/ADR leukemia) [µM] | TGI (MDA-N) [µM] | TGI (P388 leukemia) [µM] |
| --- | --- | --- | --- | --- | --- | --- | --- | --- | --- | --- |
| COc1cccc(C2C(C(=O)O)=C(CO)Oc3cc4c(cc32)OCO4)c1 (configuration not stated) | 91.2 | > 100 | > 100 | > 100 |  |  |  |  |  |  |
| COc1ccc2c(c1)O[C@H]1c3ccc(O)cc3OC[C@@H]21 | 46.4 | 46 | > 100 | > 100 | > 100 |  |  |  |  |  |
| O=NNc1cnccn1 |  | > 1250 | > 1250 | > 1250 |  | > 1250 | > 1250 | > 1250 | > 1250 | > 1250 |
| BrCCC[P+](c1ccccc1)(c1ccccc1)c1ccccc1 |  |  |  |  |  | > 100 |  |  | > 76.5 |  |
| CCN(CC)CCC(=O)c1ccccc1 |  | 56.1 |  | 49.5 |  |  |  |  |  |  |
| CCOC(=O)C1(C(=O)OCC)CSC1 |  |  |  |  |  |  |  |  | > 100 |  |
| CC(=O)NC(CCCCNC(=O)OC(C)(C)C)C(=O)O (configuration not stated) |  |  |  |  |  |  |  |  | > 100 |  |
| COC(=O)C1=COC2OC3/C(=C\c4ccc(O)c(OC)c4)C(=O)OC34C=CC1C24 (configuration not stated) | 18.4 | 27.3 | 39.4 | 33.6 |  |  |  |  |  |  |
| CN(C)CS/C(N)=N\C(O)C(Cl)(Cl)Cl (configuration not stated) |  |  |  |  |  | > 100 |  |  | > 100 |  |
| Cn1c(=O)c2c(ncn2CCSS(=O)(=O)O)n(C)c1=O |  |  |  |  |  | > 100 |  |  | > 100 |  |
| CC(=O)[O-].[Ni].c1ccc(/C(=N\Nc2ccccn2)c2ccccn2)cc1 |  | 39.3 | > 100 | 22.1 |  | 22.1 |  |  | 21.1 |  |
| CC(=O)[O-].CC(=O)[O-].O=C(N/N=C/c1cc(Cl)cc(Cl)c1[OH2+])c1ccncc1.[Zn+2] |  |  |  | > 100 |  | > 100 |  |  |  |  |
| c1ccc(SC(Sc2ccccc2)c2ccc3c(c2)OCO3)cc1 |  |  |  |  |  | > 100 |  |  | > 100 |  |
| CCOc1ccc(N=Nc2ccc3oc(=O)c(/C(C)=N\NC(=O)CC(=O)Nc4ccc(Cl)cc4)cc3c2)cc1 | 4.31 | > 100 | > 100 | > 100 | 45.5 |  |  |  |  |  |
| O=C(O)c1cncc(C(=O)O)c1 |  |  |  |  |  | > 100 |  |  | > 100 |  |
| O=c1[nH]cc(N(CCCl)CCCl)c(=O)[nH]1 | 89.7 | 175 | 369 | 196 |  | 64.8 | 172 | 70 | 153 | 66.7 |
| C=C(CN(C)C)C(=O)c1cc(C)ccc1C | 33 | 19.6 | 81.5 | 61.2 |  | 11.4 |  |  | 21.4 |  |

From PubChem BioAssay (NCI)
